Legend:
CCRF-CEM = assay: Cytotoxicity SRB assay, CCRF-CEM; format: cell-based, human; details: Leukemia CCRF-CEM, 48 h exposure
Protocol: (§1) 5a, 5c and 5d was evaluated for in vitro anticancer activity against sixty human tumor cells derived from nine cancer types leukemia, non-small-cell lung, colon, CNS, melanoma, ovarian, prostate, and breast cancer) as shown in (Table 1 and 2). For the compound, dose response curves for each cell line were measured at a minimum of five concentrations at 10 fold dilutions. A protocol of 48 h continuous drug exposure was used and a sulforhodamine B (SRB) protein assay was used to estimate cell viability or growth. The concentration causing 50% cell growth inhibition (GI50), total cell growth inhibition (TGI 0% growth) and 50% cell death (LC50, −50% growth) compared with the control was calculated.

HL-60 (TB) = assay: Cytotoxicity SRB assay, HL-60 (TB); format: cell-based, human; details: Leukemia HL-60 (TB), 48 h exposure
Protocol: as §1

RPMI-8226 = assay: Cytotoxicity SRB assay, RPMI-8226; format: cell-based, human; details: Leukemia RPMI-8226, 48 h exposure
Protocol: as §1

NCI-H226 = assay: Cytotoxicity SRB assay, NCI-H226; format: cell-based, human; details: Non-small cell lung NCI-H226, 48 h exposure
Protocol: as §1

NCI-H23 = assay: Cytotoxicity SRB assay, NCI-H23; format: cell-based, human; details: Non-small cell lung NCI-H23, 48 h exposure
Protocol: as §1

NCI-H522 = assay: Cytotoxicity SRB assay, NCI-H522; format: cell-based, human; details: Non-small cell lung NCI-H522, 48 h exposure
Protocol: as §1

HCT-116 = assay: Cytotoxicity SRB assay, HCT-116; format: cell-based, human; details: Colon HCT-116, 48 h exposure
Protocol: as §1

HCT-15 = assay: Cytotoxicity SRB assay, HCT-15; format: cell-based, human; details: Colon HCT-15, 48 h exposure
Protocol: as §1

SW-620 = assay: Cytotoxicity SRB assay, SW-620; format: cell-based, human; details: Colon SW-620, 48 h exposure
Protocol: as §1

SF-539 = assay: Cytotoxicity SRB assay, SF-539; format: cell-based, human; details: CNS SF-539, 48 h exposure
Protocol: as §1

U251 = assay: Cytotoxicity SRB assay, U251; format: cell-based, human; details: CNS U251, 48 h exposure
Protocol: as §1

LOX IMVI = assay: Cytotoxicity SRB assay, LOX IMVI; format: cell-based, human; details: Melanoma LOX IMVI, 48 h exposure
Protocol: as §1

MALME-3M = assay: Cytotoxicity SRB assay, MALME-3M; format: cell-based, human; details: Melanoma MALME-3M, 48 h exposure
Protocol: as §1

M14 = assay: Cytotoxicity SRB assay, M14; format: cell-based, human; details: Melanoma M14, 48 h exposure
Protocol: as §1

SK-MEL-5 = assay: Cytotoxicity SRB assay, SK-MEL-5; format: cell-based, human; details: Melanoma SK-MEL-5, 48 h exposure
Protocol: as §1

UACC-257 = assay: Cytotoxicity SRB assay, UACC-257; format: cell-based, human; details: Melanoma UACC-257, 48 h exposure
Protocol: as §1

UACC-62 = assay: Cytotoxicity SRB assay, UACC-62; format: cell-based, human; details: Melanoma UACC-62, 48 h exposure
Protocol: as §1

OVCAR-3 = assay: Cytotoxicity SRB assay, OVCAR-3; format: cell-based, human; details: Ovarian OVCAR-3, 48 h exposure
Protocol: as §1

786-0 = assay: Cytotoxicity SRB assay, 786-0; format: cell-based, human; details: Renal 786-0, 48 h exposure
Protocol: as §1

A498 = assay: Cytotoxicity SRB assay, A498; format: cell-based, human; details: Renal A498, 48 h exposure
Protocol: as §1

ACHN = assay: Cytotoxicity SRB assay, ACHN; format: cell-based, human; details: Renal ACHN, 48 h exposure
Protocol: as §1

CAKI-1 = assay: Cytotoxicity SRB assay, CAKI-1; format: cell-based, human; details: Renal CAKI-1, 48 h exposure
Protocol: as §1

TK-10 = assay: Cytotoxicity SRB assay, TK-10; format: cell-based, human; details: Renal TK-10, 48 h exposure
Protocol: as §1

UO-31 = assay: Cytotoxicity SRB assay, UO-31; format: cell-based, human; details: Renal UO-31, 48 h exposure
Protocol: as §1

NCI/ADR-RES = assay: Cytotoxicity SRB assay, NCI/ADR-RES; format: cell-based, human; details: Breast NCI/ADR-RES, 48 h exposure
Protocol: as §1

MDA-MB-231/ATCC = assay: Cytotoxicity SRB assay, MDA-MB-231/ATCC; format: cell-based, human; details: Breast MDA-MB-231/ATCC, 48 h exposure
Protocol: as §1

[1] = system: sixty human tumor cells derived from nine cancer types; assay: NCI sixty human tumor cell line screen (SRB), all lines / mean graph midpoints; format: cell-based; details: for Log10 LC50 mean graph midpoint (MG_MID): 50% cell death; for Log10 LC50 mean graph midpoint (MG_MID) / Log10 GI50 mean graph midpoint (MG_MID) / Log10 TGI mean graph midpoint (MG_MID): human tumor cell lines, 48 h exposure, SRB; for Log10 TGI mean graph midpoint (MG_MID): total cell growth inhibition
Protocol: as §1
The mean graph mid points of log10 TGI and log10 LC50 have shown similar pattern to the log10 GI50 mean graph mid points.

[2] = system: duplex-form calf thymus DNA (CT-DNA); assay: Thermal denaturation studies with calf thymus DNA; format: binding; details: for Change of DNA melting (ΔTm) over incubation time: 0 hr, 18 hr and 36 hr at 37° C.; for ΔTμ (° C.) after incubation at 37° C. for 0 h / ΔTμ (° C.) after incubation at 37° C. for 18 h: [PBD]:[DNA] molar ratio 1:5, CT-DNA 100 μM, ligand 20 μM, pH 7.00
Protocol: Compounds were subjected to thermal denaturation studies with duplex-form calf thymus DNA (CT-DNA) using an adaptation of a reported procedure. Working solutions in aqueous buffer (10 mM NaH2PO4/Na2HPO4, 1 mM Na2EDTA, pH 7.00+0.01) containing CT-DNA (100 μm in phosphate) and the PBD (20 μm) were prepared by addition of concentrated PBD solutions in DMSO to obtain a fixed [PBD]/[DNA] molar ratio of 1:5. The DNA-PBD solutions were incubated at 37° C. for 0, 18, and 36 h prior to analysis. Samples were monitored at 260 nm using a Beckman DU-7400 spectrophotometer fitted with high performance temperature controller, and heating was applied at 1° C. min^−1 in the 40-90° C. range. DNA helix coil transition temperatures (Tm) were obtained from the maxima in the (dA260)/dT derivative plots. Results are given as the mean±standard deviation from three determinations and are corrected for the effects of DMSO co-solvent using a linear correction term. Drug-induced alterations in DNA melting behaviour are given by: ΔTm=Tm(DNA+PBD)−Tm (DNA alone), where the Tm value for the PBD-free CT-DNA is 69.0±0.01.
The DNA binding activity for these novel C8-linked quinazoline-PBD hybrids has been examined by thermal denaturation studies using calf thymus (CT) DNA. […] Data for 5a-d and DC-81 are included in Table 4 for comparison.

Compound | GI50 (CCRF-CEM) | GI50 (HL-60 (TB)) | GI50 (RPMI-8226) | GI50 (NCI-H226) | GI50 (NCI-H23) | GI50 (NCI-H522) | GI50 (HCT-116) | GI50 (HCT-15) | GI50 (SW-620) | GI50 (SF-539) | GI50 (U251) | GI50 (LOX IMVI) | GI50 (MALME-3M) | GI50 (M14) | GI50 (SK-MEL-5) | GI50 (UACC-257) | GI50 (UACC-62) | GI50 (OVCAR-3) | ΔTμ (° C.) after incubation at 37° C. for 0 h [2] | ΔTμ (° C.) after incubation at 37° C. for 18 h [2] | also measured
COc1cc2c(cc1OCCCN1CCN(c3ncnc4ccccc34)CC1)N=C[C@@H]1CCCN1C2=O [Compound 5a] | 12 µM | 13 µM | 10 µM | 10 µM | 13.9 µM | 10.4 µM | 11.9 µM | 27.5 µM | 11.7 µM | 12.6 µM | 10 µM | 10 µM | 18.2 µM | 10.1 µM | 10 µM | 70.9 µM | 10 µM | 10 µM | 9.2 °C | 10.4 °C | GI50 (786-0): 11.8 µM; GI50 (A498): 16.1 µM; GI50 (ACHN): 43.4 µM; GI50 (CAKI-1): 13.6 µM; GI50 (TK-10): 16.6 µM; GI50 (UO-31): 13.2 µM; GI50 (NCI/ADR-RES): 13.4 µM; GI50 (MDA-MB-231/ATCC): 11.6 µM; Log10 LC50 mean graph midpoint (MG_MID) [1]: −4.99; Log10 GI50 mean graph midpoint (MG_MID) [1]: −7.68; GI50 ([1]; sixty cell lines in nine cell panels, read-out: GI50 against sixty cell lines in nine cell panels): < 0.02 µM; Log10 TGI mean graph midpoint (MG_MID) [1]: −6.66; Change of DNA melting (ΔTm) over incubation time [2]: gradually increased
COc1cc2c(cc1OCCCCN1CCN(c3ncnc4ccccc34)CC1)N=C[C@@H]1CCCN1C2=O [Compound 5b] |  |  |  |  |  |  |  |  |  |  |  |  |  |  |  |  |  |  | 9.7 °C | 10.9 °C | 
COc1cc2c(cc1OCCCCCN1CCN(c3ncnc4ccccc34)CC1)N=C[C@@H]1CCCN1C2=O [Compound 5c] | 32.5 µM | 65.2 µM | 45 µM | 17.8 µM | 15.8 µM | 65.3 µM | 21 µM | 29.7 µM | 17.6 µM | 30.3 µM | 15.8 µM | 18.2 µM | 24.2 µM | 14.5 µM | 20.9 µM | 22.9 µM | 15.1 µM | 24.9 µM | 10.3 °C | 11.8 °C | GI50 (786-0): 18.4 µM; GI50 (A498): 20.1 µM; GI50 (ACHN): 22 µM; GI50 (CAKI-1): 25.8 µM; GI50 (TK-10): 38.2 µM; GI50 (UO-31): 22.1 µM; GI50 (NCI/ADR-RES): 17.7 µM; GI50 (MDA-MB-231/ATCC): 19.9 µM; Log10 LC50 mean graph midpoint (MG_MID) [1]: −4.19; Log10 GI50 mean graph midpoint (MG_MID) [1]: −5.68; Log10 TGI mean graph midpoint (MG_MID) [1]: −4.86; Change of DNA melting (ΔTm) over incubation time [2]: gradually increased
COc1cc2c(cc1OCCCCCCN1CCN(c3ncnc4ccccc34)CC1)N=C[C@@H]1CCCN1C2=O [Compound 5d] | 13.4 µM | 19.5 µM | 16.8 µM | 18.4 µM | 22.5 µM | 18.3 µM | 14.6 µM | 18.4 µM | 25.9 µM | 33.7 µM | 19.8 µM | 15 µM | 36.2 µM | 18.8 µM | 23.3 µM | 15.9 µM | 22.5 µM | 26.3 µM | 10.6 °C | 12.2 °C | GI50 (786-0): 14.9 µM; GI50 (A498): 22 µM; GI50 (ACHN): 46.1 µM; GI50 (CAKI-1): 12.9 µM; GI50 (TK-10): 31.4 µM; GI50 (UO-31): 15.2 µM; GI50 (NCI/ADR-RES): 18.7 µM; GI50 (MDA-MB-231/ATCC): 14.2 µM; Log10 LC50 mean graph midpoint (MG_MID) [1]: −4.96; Log10 GI50 mean graph midpoint (MG_MID) [1]: −6.49; Log10 TGI mean graph midpoint (MG_MID) [1]: −5.85; Change of DNA melting (ΔTm) over incubation time [2]: gradually increased
COc1cc2c(cc1O)N=CC1CCCN1C2=O (centres unmarked) [DC-81, reference compound] |  |  |  |  |  |  |  |  |  |  |  |  |  |  |  |  |  |  | 0.3 °C | 0.7 °C | 

— US8153627B2, “Quinazoline linked pyrrolo[2,1-C][1, 4]benzodiazepine hybrids as potential anticancer agents and process for the preparation thereof” (Council of Scientific & Industrial Research, priority 2008, dated 2012)
